Source: patent publication US7700353B2, “Compositions and methods for inducing apoptosis in tumor cells” (E-P Therapeutics, Inc., priority 1998, dated 2010)

Legend:
[1] = system: 293GP and MCF-7 cells; assay: Effect of RNA/protein synthesis inhibitors on Ea-4 induced morphological change; assay type: cell-based, human; conditions: 24 hours
Procedure: To study the effects of α-aminitin and cycloheximide, known inhibitors of RNA and protein synthesis, respectively, on morphological changes induced by rtEa-4-peptide, about 1-2×10^5 of ZR-75-1 and 293GP cells, re-suspended in their respective basal medium without FBS, were plated in a 6-well culture chamber. Prior to plating the cells, an acid-washed coverslip was placed in each well of the culture chamber. Each culture was treated with recombinant trout Ea-4-peptide at 0.8 µM, and with either α-aminitin at 10 µg/mL (an RNA synthesis inhibitor) or with cycloheximide at 1.0 µg/mL (a protein synthesis inhibitor). The cell cultures were incubated at 37° C. under a humidified atmosphere of 5% CO2. Coverslips were removed from the culture chamber 24 hours after initiation of the treatment and observed under an Olympic inverted microscope equipped with differential interference phase contrast objective lenses (final magnification, 200×). The viability of the inhibitor-treated cells was further determined by a dye extrusion assay.
To determine whether the morphological changes induced by the Ea-4 peptides requires synthesis of new proteins or of RNA, 293GP and MCF-7 cells were cultured under the same conditions as described above. Ea-4 peptide-induced morphological changes in 293GP and MCF-7 cells were abolished by treatment with cycloheximide or α-aminitin (FIG. 4).

[2] = system: MCF-7, HT-29, HepG2, ZR-75-1, SK-N-F1, or HC cells; assay: Morphological change assay in tumor cell lines; assay type: cell-based, human and fish; conditions: 2.5 nM, 24 hours, serum-free basal medium
Procedure: (§1) Approximately 1-2×10^5 of MCF-7, ZR-75-1, HT-29, HepG2, 293GP, HC or SK-N-F1 cells re-suspended in their respective basal medium without fetal bovine serum (FBS) were plated in a 6-well culture chamber. Prior to plating cells, an acid-washed coverslip was placed in each well of the culture chamber. Recombinant rainbow trout E-peptides (rtEa-2, rtEa-3 or rtEa-4 peptide at 0.8 µM), human IGF-I (hIGF-1, 2.5 nM) or the same amount of control protein was added to each well and the cell cultures were incubated at 37° C. under a humidified atmosphere of 5% CO2. The control protein was prepared from E. coli cells carrying the expression plasmid but without the E-peptide gene according to the purification method described by Tian et al. (1999). Coverslips were removed from the culture chamber 24 hours after initiation of the treatment and observed under an Olympic inverted microscope equipped with differential interference phase contrast objective lenses or phase contrast objective lens (final magnification, 200×). The morphological change assay was performed at least 10 times with different batches of Ea-4 peptide preparations.
Oncogenic transformed or established cancer cells derived from human and fish (MCF-7, HT-29, HepG2, ZR-75-1, SK-N-F1, or HC cells) were plated in their respective serum-free basal medium supplemented with 0.8 µM of the trout recombinant Ea-4-peptide, with the control protein, or with 2.5 nM of the recombinant hlGF-I and the cultures were examined 24 hours later under an inverted microscope equipped with differential interference phase contrast objectives. […] The rtEa-4 peptide treated cells developed several pseudopodia-like structures to establish contact with neighboring cells similar to that seen in untransformed or non-malignant cells.
Because each of these tumor cell lines obtained from ATCC contains a mixed population of tumorous and nontumorous cells, only between 25-40% of the cells from each cell line responded to induction by rtEa-4-peptide. […]

[3] = system: neuroblastoma SK-N-F1 cells; assay: Soft agar colony formation (hEb peptide); assay type: cell-based, human; conditions: 5 nM
Procedure: The effect of hEb-peptide on in vitro colony formation was tested in the presence or absence of either the mature hlGF-I or fetal bovine serum (FIG. 12). Human neuroblastoma SK-N-F1 cells (10^4) were mixed with 0.4% soft agar supplemented with or without hEb peptide (3.2 µM), IGF-I (5 nM) and/or fetal bovine serum (2.5%), as indicated. The cell mixtures were seeded on top of a solidified basal medium DMEM/F12 (1:1) containing 0.5% agar. Medium supplemented with various peptides or serum were overlaid on top of the solidified cell layer followed by a two-week period incubation at 37° C. in a 5% CO2 humidified incubator. The percentage of cells formed into colonies with a diameter greater than 100 µm Macpherson, Tissue culture methods and applications, pp 276-80: N.Y. Academic Press, 1973) were scored in triplicate and subjected to Student t-test analysis. At least three independent assays under each treatment conditions were carried out.

[4] = system: SK-N-F1 neuroblastoma cells; assay: Neurite-like process outgrowth / morphological differentiation; assay type: cell-based, human; conditions: 5 nM
Procedure: Cells under various treatment conditions were maintained at 37° C. in a 5% CO2 incubator and observed from 30 minutes to 72 hours after incubation (synthetic human Ea- and Eb-peptide were chemically synthesized at the Biotechnology Center, University of Connecticut). For treatment with synthetic hEa, hEb peptide or hlGF-I, 1×10^5 cells were plated in each well of a 12-well culture plate in DMEM/F12 (1:1) supplemented with 0.4-3.2 µM of synthetic hEa-, hEb-peptide and/or 5-10 nM of hlGF-I.
Neuroblastoma SK-N-F1 cells (10^5) were seeded into 12-well culture plates in DMEM/F12 (1:1) supplemented with 0-3.2 µM of synthetic hEb-peptide, or buffer control, and incubated at 37° C. in a 5% CO2 humidified incubator.
Cell images were taken by random sampling at various time points using a MicroMAX CCD camera (Princeton Instruments, Bozeman, Mont.). Approximately 1000 cells were analyzed from each treatment, carried out in triplicate. Cells with neurites longer than one cell body diameter (>20 µm for SK-N-F1 cells) were scored as positive neurite-bearing (Fagerstrom, et al., Cell Growth Differ., 7: 775-85, 1996; Morrione, et al., Cancer Res. 60: 2263-72, 2000). The percentage of neurite-bearing cells and the respective length of neurites were measured with reference to a stage micrometer and analyzed using the public domain NIH Image program (developed at the U.S. National Institutes of Health and available on the Internet at http://rsb.info.nih.gov/nih-image).
To further characterize the dose-response relationship and time course of hEb peptide in inducing neurite-like process outgrowth, SK-N-F1 neuroblastoma cells were treated with various amounts (0 to 3.2 µM) of hEb peptide over a course of 72 hours. Images of cells were taken by random sampling after 1 h, 6 h, 24 h, 48 h and 72 h of incubation (see FIG. 11B). The average length of neurite-like process outgrowth was measured by random sampling of more than 1000 cells at various time points. The neurite-like processes started to be visible as early as 0.5-1 hour after the addition of hEb peptide. The effect of hEb peptide in inducing neurite-like outgrowth was dose-dependent, as evident from a comparison of cells treated with 0.4 µM hEb peptide with those treated with 0.8-3.2 µM hEb peptide over 24-72 hours. The maximum effect of hEb peptide was observed 48 hours after the addition of 3.2 µM hEb peptide, with an average neurite length of 50 to 60 µm (Table 1, below).

[5] = system: cultured BALB/3T3 fibroblast; conditions: recombinant peptides; cited from earlier work
[6] = system: NIH 3T3 cells and caprine mammary epithelium cells (CMEC); conditions: recombinant peptides; cited from earlier work
[7] = system: 293GP or ZR-75-1 cells; assay: Morphological change by Ea-2, Ea-3, Ea-4 peptides; assay type: cell-based, human; conditions: 0.8 μM, 24 hours
Procedure: as §1
Cells were again cultured as described above. Twenty-four hours after treatment with 0.8 µM of E-peptides or the control protein, the cells were observed under an Olympic inverted microscope equipped with differential interference phase contrast objective lenses (200× magnification). […] To confirm this hypothesis, synthetic peptides specific to Ea-1-, Ea-2-, Ea-3- and Ea-4-peptide (Ea-1sp, Ea-2sp, Ea-3sp and Ea-4sp) specific sequence (see FIG. 1) were prepared and tested for their activities to induce morphological change in ZR-75-1 cells. For FIG. 6, cells were cultured in F12/DME medium without FBS as described above. Twenty-four hours after treatment with 0.8 µM of synthetic peptide containing Ea-1 sp, Ea-2sp, Ea-3sp or Ea-4sp specific sequence or the control protein, the cells were observed under an Olympic inverted microscope equipped with differential interference phase contrast objective lenses (200× magnification).

.alpha.-aminitin
Ea-4 peptide-induced morphological changes ([1]; α-aminitin 10 μg/mL with Ea-4 0.8 μM): abolished

hlGF-I: recombinant mature human insulin-like growth factor I [reference compound]
morphological change [2]: rounded morphology | colony formation [3]: strongly stimulated colony formation | morphological change [4]: remained rounded and formed aggregated clusters

rtEa-2: recombinant Ea-2 peptide of rainbow trout pro-IGF-I, 47 amino acid residues (SEQ ID NO: 4) (RSVRAQRHTDMPRTPKKPLSGHSHPSCKEVHQKNSSRGNTGGRNYRM; Oncorhynchus mykiss)
mitogenic activity [5]: possess mitogenic activity | mitogenic activity [6]: possess mitogenic activity | induction of morphological change [7]: able to induce morphological change

C[C@@H]1C[C@@H]([C@H](O)CC2CC(=O)NC(=O)C2)C(=O)[C@@H](C)C1 [cycloheximide]
Ea-4 peptide-induced morphological changes ([1]; cycloheximide 1.0 μg/mL with Ea-4 0.8 μM): abolished

B1: rtEa-3: recombinant Ea-3 peptide of rainbow trout pro-IGF-I, 62 amino acid residues (SEQ ID NO: 3) (protein)
chain: RSVRAQRHTDMPRTPKVSTAVQSVDRGTERRTAQHPDKTKPKKEVHQKNSSRGNTGGRNYRM
modifications: Oncorhynchus mykiss
mitogenic activity [5]: possess mitogenic activity | mitogenic activity [6]: possess mitogenic activity | induction of morphological change [7]: failed to induce any visible morphological change
